US11933781B2, “Fibrosis model and methods of use thereof” (The Regents of the University of Colorado, priority 2020, dated 2024)
Entries after “also recorded” stand apart in the source; their conditions may differ.

Columns and labels:
COPD HBECs = assay: Induction of jamming in COPD HBECs; assay type: cell-based, human
From the text: (§1) Epithelial Cell Culture: Primary human bronchial epithelial cells (HBECs) were obtained from two sources (1) provided by Dr. Hong Wei Chu at National Jewish Health, or (2) lung transplant collection at the University of Colorado Hospital (IRB protocol: 11-1664 or 18-0572). Epithelial cells from bronchial brushes or CT-guided dissection were expanded to passage 2 before being cultured at air liquid interface (ALI). Control (N=11), IPF (N=6), and COPD (N=3) were age matched and controls had no history of chronic lung disease (Table 1). Cells were seeded on 24-Transwell plates (Corning, Corning, New York, 3470) coated with type I collagen (Corning, Corning, New York, 354236) and maintained under submerged conditions for five to seven days until the cells reached confluence. Culture media was a 1:1 mixture of DMEM and BEBM (Lonza, Basel, Switzerland, CC170) supplemented with retinoic acid (Sigma-Aldrich, Germany, R-2625) nystatin (Sigma-Aldrich, Germany N1638), and bovine serum albumin (FisherSci, Thermo Fisher Scientific, Waltham, Massachusetts BP9703100). Once confluent, apical media was removed and maintained at ALI. HBECs began recapitulating the in vivo airway, with production of mucus (6-9 days after establishing ALI) and development of a pseudostratified epithelium. Cells were switched to a starvation media (lacking supplemental epidermal growth factor, hydrocortisone, and bovine pituitary extract) 24 hours prior to experimentation.
For inhibitor, activator, and ligand treatments HBECs were cultured in a starvation media in the absence of EGF, hydrocortisone, and bovine pituitary extract for 24 hours prior to treatment initiation. Cells were then treated for 2-4 hours (with exception of AREG neutralizing antibody which was maintained in the culture media), media was aspirated, the wells were washed with warm PBS and then replaced with fresh starvation media without inhibitor/activator/ligand present, and subsequently imaged. For experiments that required subsequent media changes (96 hour) cells fresh starvation media was changed 48 hours afterwards. […]

[1] = tested on: proximal, jammed cultures; assay: IL-6 family cytokine induced unjamming of proximal airway epithelial cultures; assay type: cell-based, human; conditions: proximal cultures pre-treated, then stimulated with IL-6 family cytokines
Protocol: Live Cell Imaging and Dynamics Measurement: To assess cellular dynamics, time-lapse microscopy and subsequent analysis were completed. Two imaging schemes were utilized: (1) images were taken every 5 minutes for 200 minutes during HBEC differentiation; (2) images were taken every 20 minutes for 48, 96, or 144 hours after HBEC experimental intervention. Phase contrast images were acquired on a Keyence BZ-X810 with a stage incubator (37° C., 5% CO2). Dynamic analysis followed previously published workflows (10-12, 22). Briefly, using phase contrast images instantaneous velocities were mapped by particle image velocimetry utilizing open source PIVLab on MATLAB. Velocity fields were obtained with 2 passes (64×64 and 32×32 pixel size interrogation window with 50% overlap) with a pixel size of 0.75488 μm using a Fast Fourier Transformation method. Trajectories from the PIV were seeded onto a grid and obtained via forward-integration of subsequent fields. […]
Cell Shape Analysis: Cell shape measurements were achieved via cell border delineation by F-actin immunofluorescence. […] Similar to previously published workflows, we segmented images which were subsequently analyzed in ImageJ for the shape index (q=Perimeter√Area) and aspect ratio (major and minor axis) for all cells within a given field of view. […]

IPF HBECs [2] = assay: Induction of the unjammed-to-jammed transition (UJT) in IPF HBECs; assay type: cell-based, human; conditions: day 14 IPF HBECs
From the text: as §1
For inhibitor, activator, and ligand treatments HBECs were cultured in a starvation media in the absence of EGF, hydrocortisone, and bovine pituitary extract for 24 hours prior to treatment initiation. Cells were then treated for 2-4 hours (with exception of AREG neutralizing antibody which was maintained in the culture media), media was aspirated, the wells were washed with warm PBS and then replaced with fresh starvation media without inhibitor/activator/ligand present, and subsequently imaged. For experiments that required subsequent media changes (96 hour) cells fresh starvation media was changed 48 hours afterwards.
Live Cell Imaging and Dynamics Measurement: To assess cellular dynamics, time-lapse microscopy and subsequent analysis were completed. Two imaging schemes were utilized: (1) images were taken every 5 minutes for 200 minutes during HBEC differentiation; (2) images were taken every 20 minutes for 48, 96, or 144 hours after HBEC experimental intervention. Phase contrast images were acquired on a Keyence BZ-X810 with a stage incubator (37° C., 5% CO2). Dynamic analysis followed previously published workflows (10-12, 22). Briefly, using phase contrast images instantaneous velocities were mapped by particle image velocimetry utilizing open source PIVLab on MATLAB. Velocity fields were obtained with 2 passes (64×64 and 32×32 pixel size interrogation window with 50% overlap) with a pixel size of 0.75488 μm using a Fast Fourier Transformation method. Trajectories from the PIV were seeded onto a grid and obtained via forward-integration of subsequent fields. These values were then used to determine mean-squared-displacement (MSD) and self-overlap order parameter (Q): MSD(Δt)= ? ri(t+Δt)−ri(t)|2 ? and Q(Δt)=N−1ΣwiNi=1 as previously published. Instantaneous room mean squared velocity (VRMS) of the monolayer was obtained as previously published: VRMS(t)=√1MΣ ? |v(t)2 ? jMj=1
Cell Shape Analysis: Cell shape measurements were achieved via cell border delineation by F-actin immunofluorescence. Images were segmented utilizing SeedWater Segmenter. Similar to previously published workflows, we segmented images which were subsequently analyzed in ImageJ for the shape index (q=Perimeter√Area) and aspect ratio (major and minor axis) for all cells within a given field of view. For each experimental condition an n≥3 was used with at least 3 independent wells per donor per treatment condition. […]

IPF HBECs [3] = assay: YAP immunofluorescence in IPF HBECs; assay type: cell-based, human; conditions: IPF HBECs 48 hours after treatment
Protocol: Immunofluorescence staining: Cells were fixed with 4% paraformaldehyde in PBS with calcium and magnesium for 30 minutes at room temperature. Cells were then washed with PBS and subsequently permeabilized (Triton™-X, at 0.1%) and blocked with 5% bovine serum albumin in PBS for 1 hour at room temperature. Cells were then incubated for >16 hours at 4 degrees with primary antibodies. Primary antibodies were aspirated, and cells were washed with PBS+0.1% Tween-20 at room temperature. Cells were then incubated for 1 hour at room temperature with secondary antibodies (1:500) and/or Phalloidin-iFluor™ 488 1:2000. Cells were stained with 4′,6-diamidino-2-phenylindole at 1:20000 (BioLegend®, San Diego, California, 422801). Subsequently, transwell membranes, or hydrogels, were removed from the well and mounted on glass slides with Fluoromount-G® (SouthernBiotech™, Birmingham, Alabama, 0100-01). Slides were then visualized using an Olympus BX63 microscope (Olympus, Tokyo, Japan).
Immunofluorescence and cell number quantification for HBEC experiments: For total fluorescence quantification (i.e., ERBB2), all images were processed in the same manner with the same microscopy settings. To determine mean fluorescence the channel of interest was separated in ImageJ, and the mean gray value was measured for the field of view and normalized by the total number of cells. Cell counting was achieved by taking 40×images and manually counting all nuclei in a field of view (approximately 200-300). The number of cells also expressing the marker of interested were then counted and normalized by the total number of cells per field. For each experiment a biological n≥3 was used with at least 5 fields of view per well and at least 2 wells being counted in total per donor.

IPF HBECs [4] = assay: Gene expression of ERBB receptors, YAP target genes and MUC5B in IPF HBECs; assay type: cell-based, human; conditions: IPF HBECs after inhibition
Protocol: Quantitative RT-PCR Analysis: Total RNA was extracted using RNeasy® Mini kit (Qiagen, Hilden, Germany) and quantified by NanoDrop™ (ThermoFisher Scientific™, Waltham, Massachusetts).Reverse transcription was completed using the High Capacity cDNA Reverse Transcription Kit (Applied Biosystems™, Thermo Fisher Scientific™, Waltham, Massachusetts). Gene expression was analyzed by using TaqMan® Advanced Master Mix (Thermo Fisher Scientific™, Waltham, Massachusetts and TaqMan® assays. They were subsequently run in triplicate on the ViiA™ 7 Real-Time machine (Thermo Fisher Scientific™, Waltham, Massachusetts). Primer IDs were: β-ACTIN, Hs01060665_g1; MUC5B, Hs00861595_m1; MUC5AC, Hs01365616_m1; EGFR, Hs0176090_m1; ERBB2, Hs01001580_m1; ZEB1, Hs00232783_m1; SNAI1, Hs00195591_m1; VIM, Hs00185584_m1; CTGF, Hs00170014_m1; AREG, Hs00950669_m1; FN1, Hs01549976_m1; PDGFRA, Hs00998018_m1; PDGFA, Hs00234994_m1; PDGFRB, Hs01019589_m1; PDGFB, Hs00966522_m1; TGFBRI, Hs00610320_m1; TGFBI, Hs00998133_m1; COL1A1, Hs00164004_m1; ACTA2, Hs00426835; MMP3, Hs00968305_m1; MMP9, Hs00957562_m1; TIMP1, Hs01092512_g1; and TIMP2, Hs00234278_m1.

[5] = tested on: primary human lung fibroblasts (HLFs); assay: Activation of human lung fibroblasts on 3 kPa hydrogels by HBEC conditioned media; assay type: cell-based; conditions: HLFs in IPF conditioned HBEC media supplemented with inhibitor
Protocol: Culture and treatment of HLFs: Primary human lung fibroblasts (HLFs) were obtained from control lungs not suitable for transplantation at National Jewish Health. Briefly, pieces of tissue were placed into a tissue-culture dish and weighed down by a coverslip. Cells were cultured in DMEM (Corning, Corning, New York, 10-013-cv) supplemented with L-glutamine (25-005-cl), penicillin/streptomycin (Corning, Corning, New York, 30-002-c1), and 10% fetal bovine serum (ATCC®, Manassas, Virginia, 30-2020). These fibroblasts were then sub-cultured in t-75 flasks. All HLFs used in this study (N=4) were seeded at passage 3. […]
Quantitative RT-PCR Analysis: Total RNA was extracted using RNeasy® Mini kit (Qiagen, Hilden, Germany) and quantified by NanoDrop™ (ThermoFisher Scientific™, Waltham, Massachusetts).Reverse transcription was completed using the High Capacity cDNA Reverse Transcription Kit (Applied Biosystems™, Thermo Fisher Scientific™, Waltham, Massachusetts). […]
Immunofluorescence and cell number quantification for HLF experiments: For fluorescence quantification, (i.e., vimentin or alpha-SMA) images were all processed using the same settings. Fluorescence intensity was determined by channel separation and measurement of mean gray value for the field and normalized to total cell number. Cell number was determined by automated counting in ImageJ. […]

Molecule: Verteporfin
- induction of jamming in COPD epithelia (COPD HBECs): not responsive to ERBB-YAP inhibition
- effect of inhibitor pre-treatment on IL-6 family cytokine induced unjamming [1]: SRC and YAP were essential for the acquisition of this fluid-like phenotype
- induction of the UJT (jamming) in IPF epithelia (IPF HBECs [2]): halted migration and induced a cobblestone appearance in the epithelia
- YAP nuclear exclusion (IPF HBECs [3]): results in YAP nuclear exclusion
- transcription of ERBB receptors, YAP target genes and MUC5B (IPF HBECs [4]): reduced the transcription of ERBB receptors, YAP target genes, and MUC5B nearly back to control levels; also recorded: decreases 738 ERBB-YAP target gene expression

Molecule: NC(=O)c1ccc(-c2nc(-c3ccc4c(c3)OCO4)c(-c3ccccn3)[nH]2)cc1 [SB431542]
- fibroblast activation [5]: reduced fibroblast activation
- rescue of increase in cell number and pro-fibrotic gene expression [5]: none of these treatments alone were able to fully rescue the increase in cell number or the associated pro-fibrotic gene expression

Molecule: O=[N+]([O-])c1ccc2c(c1)S(=O)(=O)C=C2 [Stattic]
- effect of inhibitor pre-treatment on IL-6 family cytokine induced unjamming [1]: JAK/STAT signaling was dispensable for IL-6 family cytokine induced unjamming in proximal cultures
- induction of the UJT (jamming) in IPF epithelia (IPF HBECs [2]): did not induce the UJT
